Source: patent US20200108008A1, “OLAPARIB ORAL SUSTAINED AND CONTROLLED RELEASE PHARMACEUTICAL COMPOSITION AND USES THEREOF” (SHANGHAI INSTITUTE OF MATERIA MEDICA, CHINESE ACADEMY OF …, priority 2016, published 2020)

Test: Dissolution of olaparib solid dispersion versus olaparib compound powder in water under sink conditions
Type: physicochemical
Conditions: 37° C., 100 rpm
Description: A solid dispersion was prepared from Olaparib and copolyvidone VA64 by solvent evaporation. That is, olaparib and copolyvidone VA64 were simultaneously dissolved in ethanol/acetone (25/75, v/v), evaporated off the organic solvent under reduced pressure, dried in a vacuum drying oven, and ground and pulverized through a 60 mesh screen to be ready for tableting. For the obtained solid dispersion, in water under sink conditions at 37° C. and 100 rpm, the pharmaceutically active ingredient was dissolved out 90% or more in 30 min. However, under the same conditions, the olaparib compound powder was dissolved out less than 60% in 2h.

SMILES: O=C(c1cc(Cc2n[nH]c(=O)c3ccccc23)ccc1F)N1CCN(C(=O)C2CC2)CC1 [olaparib compound powder, 1-(cyclopropylcarboxyl)-4-[5-[(3,4-dihydro-4-oxo-1-phthalazinyl)methyl]-2-fluorobenzoyl]piperazine]
- dissolved out in 2h: less than 60%
